Measured values published in patent US8173821B2, “Serotonin and norepinephrine reuptake inhibitor” (Eli Lilly and Company, priority 2009, dated 2012).

Tests used:
serotonin transporter = target: T1, serotonin transporter (Rattus norvegicus, UniProt P31652); experiment: In vivo transporter occupancy assay; settings: 1 hr. post dosing
T1 construct: from tissue; host or cells: rat frontal cortex, in vivo
Protocol: Male Sprague-Dawley rats weighing 240-280 gm in groups of three are used to determine serotonin transporter occupancy. Animals are fasted at least 12 hr. before the start of each experiment. Animals are orally administered vehicle or 0.10, 0.33, 1.00, 3.33 or 10.00 mg/kg doses of test compound in 4% Glucose in 25 mM Phosphate buffer, (pH=3.0) containing 0.1, 0.33, 1, 3.33, or 10% CAPTISOL™ (concentration of CAPTISOL™ (%)=dose of test compound (mg/kg)). […] After an additional 40 min., rats are sacrificed via cervical dislocation, and a portion of the frontal cortex is removed and placed on dry ice. An additional control group of three rats is dosed with paroxetine maleate at 12 mg/kg, i.v., followed by N,N-dimethyl-2-(2-amino-4-cyanophenylthio)-benzylamine (10 μg/kg) 1 hr. later.
Tissues are allowed to thaw and then four volumes (w/v) of acetonitrile containing 0.1% formic acid is added. Samples are homogenized using an ultrasonic dismembrator probe and centrifuged for 16 min. at 14,000×g. One volume of the supernatant is added to 3 volumes of water in an autosampler vial and vortexed. Separation is achieved with a Zorbax C18 HPLC column and a mobile phase gradient of from 20% to 90% acetonitrile/water, each with 0.1% formic acid. The total HPLC run time is 3.5 min with an additional 2.0 min re-equilibration time. An API4000 triple quadrupole mass spectrometer (Applied Biosystems, Foster City, Calif., USA) operating in MRM mode is used for detection. The ion transition monitored is 284.1/239.1 m/z for N,N-dimethyl-2-(2-amino-4-cyanophenylthio)-benzylamine.
The level of N,N-dimethyl-2-(2-amino-4-cyanophenylthio)-benzylamine (tracer) in the cortex of vehicle-pretreated animals represents the sum of nonspecific and specific binding and is assigned the value of 0% occupancy (all receptors available to the tracer). The lower level of tracer in animals pretreated with the very high intravenous dose of paroxetine maleate, the positive control group, represents the nonspecific binding and is assigned the value of 100% occupancy (no receptors available to the tracer). Levels of tracer in the cortex following oral administration of test compound are interpolated linearly between these two extremes in order to determine the percent serotonin transporter occupancy. Data are expressed as means±SEM (n=3/group) calculated using Prism version 3.0 (GraphPad Software Inc., San Diego, Calif., USA). The ED80 values are obtained by fitting the data to a sigmoidal curve using nonlinear regression.

[1] = target: T2, Human dopamine transporter (DAT) (Homo sapiens, UniProt Q01959); experiment: In vitro transporter affinity assay (SPA radioligand binding), DAT; settings: membranes of transfected HEK293 cells, 3H-WIN 35428; read-out: Ki hDAT
T2 construct: expressed in transfected cells; host or cells: HEK293 (membrane stocks)
Protocol: (§1) Human serotonin transporter (SERT), norepinephrine transporter (NET), or dopamine transporter (DAT) are cloned into a pcDNA3 vector and stably transfected into HEK293 cells. […] Fluoxetine (100 μM) is used to determine non-specific binding, and venlafaxine is used as a positive control. NET membranes are used at a concentration of 8 μg/well in assay buffer containing 50 mM Tris, 300 mM NaCl, and 5 mM KCl (pH 7.4). ^3H-Nisoxetine is used as the tracer, 100 μM desipramine serves as a measure of non-specific binding, and nisoxetine is used as the positive control. For DAT binding assays, the assay buffer is the same as for SERT, membranes are used at 20 μg/well, 100 μM nomifensine is used to determine non-specific binding, ^3H-WIN 35428 (Perkin Elmer) serves as the radiotracer, and nomifensine is used as the positive control. In all cases, 0.5 mg/well of wheat-germ agglutinin scintillation proximity assay beads (WGA-SPA, GE Health Sciences) are used to capture the membranes, and plates are incubated for 3 hours at room temperature. Radioactivity is measured and Ki values calculated using a four-parameter logistic curve fitting program (ActivityBase v5.3.1.22).

[2] = target: T3, Human serotonin transporter (SERT) (Homo sapiens, UniProt P31645); experiment: In vitro transporter affinity assay (SPA radioligand binding), SERT; settings: membranes of transfected HEK293 cells, 3H-citalopram; read-out: Ki hSERT
T3 construct: expressed in transfected cells; host or cells: HEK293 (membrane stocks)
Protocol: as §1

[3] = target: T4, norepinephrine transporter (Rattus norvegicus, UniProt Q63380); experiment: Alpha MMT: monoamine depletion inhibition assay; assay type: in vivo; settings: rat cortex
T4 construct: from tissue; host or cells: rat cortex, in vivo
Source text: DL-Para-chloroamphetamine (PCA) is transported into serotonergic neurons via the neuronal transporter and produces a long-lasting depletion of rat brain serotonin (5-HT) concentrations. Alpha-methyl-m-tyrosine (α-MMT) is a noradrenergic depleting agent that is β-hydroxylated to metaraminol in vivo and actively transported into norepinephrine (NE) neurons via the neuronal transporter producing a decrease in NE levels in rat brain. The depletion of rat brain 5-HT levels by PCA and rat cortical NE concentrations by α-MMT is blocked by agents with 5-HT and NE reuptake inhibitor activity. Compounds of the present invention may be assayed for their activity to prevent the depletion of rat brain 5-HT concentrations by PCA and the depletion of rat cortical NE concentrations by a-MMT in fed and fasted rats in vivo using the following methods.
Male Sprague Dawley rats weighing 160-180 grams are fasted overnight or allowed food ad libidum. […] All compounds are administered at 1 mL/kg. Animals are sacrificed 2 hr. after PCA or α-MMT administration. Tissues are dissected, frozen on dry ice and stored at −70° prior to analysis. […] The data are collected using an EZChrom™ chromatography data system (Scientific Software, San Ramon, Calif.) which calculates peak heights and sample concentrations. Analysis of variance, followed by Tukey's Honestly Significant Difference test post hoc, identifies significant differences between treatment groups (P≦0.05). Doses that antagonized the PCA- or α-MMT-induced depletion of monoamines by 50 percent, (ED50's) are calculated using a best-fit linear regression analysis.

[4] = target: T5, Human norepinephrine transporter (NET) (Homo sapiens, UniProt P23975); experiment: In vitro transporter affinity assay (SPA radioligand binding), NET; settings: membranes of transfected HEK293 cells, 3H-nisoxetine; read-out: Ki hNET
T5 construct: expressed in transfected cells; host or cells: HEK293 (membrane stocks)
Protocol: as §1

[5] = target: T6, Human serotonin (SERT) transporter (Homo sapiens, UniProt P31645); experiment: In vitro inhibitor activity assay (3H-serotonin uptake); assay type: cell-based; settings: transfected HEK293 cells, read-out: IC50 hSERT (serotonin reuptake)
T6 construct: expressed in transfected cells; host or cells: HEK293
Protocol: (§2) Human serotonin (SERT) or norepinephrine (NET) transporters are cloned into a pcDNA3 vector and stably transfected into HEK293 cells. Both assays are modified from methods described by Eshleman et al., J. Pharmacol. Exptl Ther., 289, 877-885 (1999)) and Wall et al., Mol. Pharmacol., 47, 544-550 (1995). Cells are grown on poly-D-lysine coated flasks or 96-well plates in D-MEM/F-12 3:1 (3 part of Dulbecco's Modified Eagle Medium in 1 part of Nutrient Mix F-12 medium) containing 5% fetal bovine serum, 250 μg/mL geneticin, and 20 mM Hepes. Cells are plated at 40,000 cells per well in 200 μL of medium and incubated for 18-24 hours at 37° C. prior to the assay. The assay uptake buffer consists of Krebs-Ringer bicarbonate stock supplemented with 1.26% sodium bicarbonate, 20 mM HEPES, and 100 μM each of pargyline and ascorbic acid. Following a 30 minute pre-incubation with the compound or indatraline (as a positive control), ^3H-serotonin or ^3H-norepinephrine is added for 1 min. and 50 sec. The ^3H-substrate is then removed, and the cells washed 4× with 100 μL of cold uptake buffer using multimek. […] Microscint™ 40 is added to each well and the radioactivity is quantitated for 1 min. per well. Results are analyzed as IC50 values using a four-parameter logistic curve fitting program (ActivityBase v5.3.1.22).

[6] = target: T7, Human norepinephrine (NET) transporter (Homo sapiens, UniProt P23975); experiment: In vitro inhibitor activity assay (3H-norepinephrine uptake); assay type: cell-based; settings: transfected HEK293 cells, read-out: IC50 hNET (norepinephrine reuptake)
T7 construct: expressed in transfected cells; host or cells: HEK293
Protocol: as §2

Formalin induced pain = experiment: Manual formalin test; assay type: in vivo; settings: rat
Protocol: The manual formalin test is performed in custom-made Plexiglas boxes approx. 25 cm×25 cm×20 cm in size. A mirror placed at the back of the cage allows the unhindered observation of the formalin injected paw. Rats (Charles River (CRL) Sprague Dawley (SD)) are placed individually in the cubicles at least 30 min. prior to the experiment. All testing is conducted between 08:00 and 14:00 h and the testing room temperature is maintained at 21-23° C. Peripherally administered test compounds are dosed at varying times before the formalin challenge. Formalin (50 μL of a 5% solution in saline) is injected subcutaneously into the dorsal lateral surface of the right hind paw with a 27 gauge needle. Observation starts immediately after the formalin injection. Formalin induced pain is quantified by recording the number of seconds each licking event lasts in 5 min. intervals. The pain scoring is measured for 50 min. after the formalin injection. Two phases of pain behavior are observed as previously described (Wheeler-Aceto, H., Porreca, F. and Cowan, A., The rat paw formalin test: comparison of noxious agents, Pain 40 (1990) 229-238.). The early phase starts immediately after the formalin injection and lasts approximately 5 min., followed by the late phase that starts between minutes 10-15 with a maximum response typically observed around 25-35 min. after the formalin injection. After the 50 min. observation period, animals are sacrificed with CO2.
Of the different scoring parameters reported for the formalin test, the total time spent licking and biting the injected paw is considered to be most relevant. (Abbott et al., The formalin test: scoring properties of the first and second phases of the pain response in rats, Pain 60 (1995) 91-102; Coderre et al., The formalin test: a validation of the weighted-scores method of the behavioral pain rating, Pain 54 (1993) 43-50).) The early phase score is the sum of time spent licking (seconds) from time 0 to 5 min. The late phase score is obtained by adding the total number of seconds spent licking from minute 16 to min. 40 of the observation period. Data are presented as means with standard errors of means (±SEM). Data is evaluated by one-way analysis of variance (ANOVA) and the appropriate contrasts analyzed by Dunnett “t′ test for two sided comparisons. Differences are considered to be significant if the P-value is less than 0.05. (Abbott, supra.; Coderre, supra.; and Wheeler-Aceto, supra.)

T1 sequence (P31652 whole entry): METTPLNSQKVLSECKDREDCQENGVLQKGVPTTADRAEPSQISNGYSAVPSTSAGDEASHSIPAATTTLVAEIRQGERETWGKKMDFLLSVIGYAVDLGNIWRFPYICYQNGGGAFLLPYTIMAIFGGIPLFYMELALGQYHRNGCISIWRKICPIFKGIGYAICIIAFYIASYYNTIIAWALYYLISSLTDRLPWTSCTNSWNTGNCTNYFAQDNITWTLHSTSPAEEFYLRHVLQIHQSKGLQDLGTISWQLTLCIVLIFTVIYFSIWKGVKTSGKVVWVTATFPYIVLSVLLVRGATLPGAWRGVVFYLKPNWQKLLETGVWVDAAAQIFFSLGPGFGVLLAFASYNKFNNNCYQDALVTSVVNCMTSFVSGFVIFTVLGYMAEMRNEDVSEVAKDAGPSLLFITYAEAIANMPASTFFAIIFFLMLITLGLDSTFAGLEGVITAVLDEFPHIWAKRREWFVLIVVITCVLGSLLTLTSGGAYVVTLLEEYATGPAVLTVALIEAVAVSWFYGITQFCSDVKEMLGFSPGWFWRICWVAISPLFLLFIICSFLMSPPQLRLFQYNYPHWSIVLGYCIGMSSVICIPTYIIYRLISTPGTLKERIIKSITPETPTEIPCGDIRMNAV
T4 sequence (Q63380 1-617): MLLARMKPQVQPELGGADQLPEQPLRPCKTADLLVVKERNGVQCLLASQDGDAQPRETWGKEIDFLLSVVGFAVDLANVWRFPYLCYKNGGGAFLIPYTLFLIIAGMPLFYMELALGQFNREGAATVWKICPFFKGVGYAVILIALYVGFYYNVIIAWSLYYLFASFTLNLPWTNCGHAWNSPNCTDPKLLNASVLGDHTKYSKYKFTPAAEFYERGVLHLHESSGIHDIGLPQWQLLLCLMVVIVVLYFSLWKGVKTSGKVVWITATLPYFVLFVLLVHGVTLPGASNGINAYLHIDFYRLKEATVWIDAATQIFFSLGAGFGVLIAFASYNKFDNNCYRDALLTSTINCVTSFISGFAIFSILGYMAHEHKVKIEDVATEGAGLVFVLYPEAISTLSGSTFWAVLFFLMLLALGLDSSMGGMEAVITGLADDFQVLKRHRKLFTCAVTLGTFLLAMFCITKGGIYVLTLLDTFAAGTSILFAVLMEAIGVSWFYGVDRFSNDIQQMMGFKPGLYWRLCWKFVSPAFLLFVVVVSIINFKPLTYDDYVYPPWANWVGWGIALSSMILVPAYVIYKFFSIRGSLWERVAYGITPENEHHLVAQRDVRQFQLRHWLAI
T5 sequence (P23975 whole entry): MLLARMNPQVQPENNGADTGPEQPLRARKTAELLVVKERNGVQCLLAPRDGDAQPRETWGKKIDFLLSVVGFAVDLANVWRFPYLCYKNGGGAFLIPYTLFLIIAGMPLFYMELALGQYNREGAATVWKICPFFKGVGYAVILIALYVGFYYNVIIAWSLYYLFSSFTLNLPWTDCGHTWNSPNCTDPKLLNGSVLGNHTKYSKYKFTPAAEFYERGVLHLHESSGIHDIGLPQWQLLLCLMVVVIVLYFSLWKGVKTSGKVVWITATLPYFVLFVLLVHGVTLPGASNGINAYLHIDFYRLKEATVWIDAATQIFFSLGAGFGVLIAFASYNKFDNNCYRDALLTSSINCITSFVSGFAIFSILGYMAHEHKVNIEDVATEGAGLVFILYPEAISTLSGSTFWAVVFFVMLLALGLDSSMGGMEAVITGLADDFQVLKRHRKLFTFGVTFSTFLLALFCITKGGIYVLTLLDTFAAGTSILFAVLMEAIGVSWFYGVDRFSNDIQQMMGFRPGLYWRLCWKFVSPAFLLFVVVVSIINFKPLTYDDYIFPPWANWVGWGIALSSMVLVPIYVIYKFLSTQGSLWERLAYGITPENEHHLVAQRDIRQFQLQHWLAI
T7 sequence (P23975 whole entry): as above
T3 sequence (P31645 whole entry): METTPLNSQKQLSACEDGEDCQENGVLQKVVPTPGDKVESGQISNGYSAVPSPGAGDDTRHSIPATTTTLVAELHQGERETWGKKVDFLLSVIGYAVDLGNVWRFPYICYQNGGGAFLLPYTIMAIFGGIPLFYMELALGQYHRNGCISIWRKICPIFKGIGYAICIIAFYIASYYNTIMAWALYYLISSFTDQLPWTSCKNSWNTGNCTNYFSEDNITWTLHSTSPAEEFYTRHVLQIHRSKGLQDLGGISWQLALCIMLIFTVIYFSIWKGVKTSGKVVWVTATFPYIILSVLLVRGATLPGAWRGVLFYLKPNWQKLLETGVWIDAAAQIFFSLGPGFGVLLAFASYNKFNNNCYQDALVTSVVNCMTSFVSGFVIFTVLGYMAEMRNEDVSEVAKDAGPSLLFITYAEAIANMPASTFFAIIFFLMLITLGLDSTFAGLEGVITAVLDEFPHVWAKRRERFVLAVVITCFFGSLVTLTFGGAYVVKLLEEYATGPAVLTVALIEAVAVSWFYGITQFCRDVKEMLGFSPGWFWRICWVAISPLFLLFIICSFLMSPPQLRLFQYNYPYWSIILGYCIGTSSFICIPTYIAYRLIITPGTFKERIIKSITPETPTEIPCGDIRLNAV
T6 sequence (P31645 whole entry): as above
T2 sequence (Q01959 whole entry): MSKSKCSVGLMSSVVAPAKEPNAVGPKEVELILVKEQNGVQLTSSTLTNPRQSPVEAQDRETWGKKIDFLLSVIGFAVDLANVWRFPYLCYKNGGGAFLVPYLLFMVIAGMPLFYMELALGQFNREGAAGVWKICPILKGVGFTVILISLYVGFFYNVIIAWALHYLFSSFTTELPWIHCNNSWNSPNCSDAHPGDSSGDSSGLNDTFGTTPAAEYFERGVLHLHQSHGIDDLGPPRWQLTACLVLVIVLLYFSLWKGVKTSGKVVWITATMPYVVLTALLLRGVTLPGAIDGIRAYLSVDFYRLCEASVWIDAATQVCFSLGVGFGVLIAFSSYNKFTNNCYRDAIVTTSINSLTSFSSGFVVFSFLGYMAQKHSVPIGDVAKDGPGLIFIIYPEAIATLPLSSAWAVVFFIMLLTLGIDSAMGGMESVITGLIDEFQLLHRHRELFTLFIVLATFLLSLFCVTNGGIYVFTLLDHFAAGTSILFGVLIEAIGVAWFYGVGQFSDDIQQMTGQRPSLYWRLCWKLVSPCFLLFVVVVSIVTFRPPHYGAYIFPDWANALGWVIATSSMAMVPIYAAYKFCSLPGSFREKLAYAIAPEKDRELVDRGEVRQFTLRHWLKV

## COc1ccc(O[C@@H](CC(C)C)[C@H]2CCNC2)c(C)n1.O=C(O)C(O)C(O)C(=O)O [EXAMPLE 19, (3S)-3-(1-(6-methoxy-2-methyl-3-pyridyloxy)-3-methyl-butyl)-pyrrolidine, L-tartrate (S-2)]
Serotonin transporter; po, rat frontal cortex, 0.3 mg/kg p.o.
  receptor occupancy at 0.3 mg/kg: 5.9%
Serotonin transporter; po, rat frontal cortex, 1 mg/kg p.o.
  receptor occupancy at 1 mg/kg: 25%
Serotonin transporter; po, rat frontal cortex, 3 mg/kg p.o.
  receptor occupancy at 3 mg/kg: 43.3%
Serotonin transporter; po, rat frontal cortex, 10 mg/kg p.o.
  receptor occupancy at 10 mg/kg: 94%
Serotonin transporter; po, rat frontal cortex, 30 mg/kg p.o.
  receptor occupancy at 30 mg/kg: 106%
Serotonin transporter; rat, p.o.
  absolute ED80 (serotonin transporter occupancy): 7.1 mg/kg
[1]
  Ki: 461 ± 72 nM
[2]
  Ki: 0.199 ± 0.02 nM
[3]; po, 3 mg/kg p.o., read-out: % Inhibition (α-MMT induced depletion of norepinephrine)
  inhibition at 3 mg/kg: 21%
[3]; po, 10 mg/kg p.o., read-out: % Inhibition (α-MMT induced depletion of norepinephrine)
  inhibition at 10 mg/kg: 79%
[3]; po, 30 mg/kg p.o., read-out: % Inhibition (α-MMT induced depletion of norepinephrine)
  inhibition at 30 mg/kg: 115%
[3]; 0.3 mg/kg p.o.
  % Inhibition (α-MMT induced depletion of norepinephrine): 7.0%
[3]; 1 mg/kg p.o.
  % Inhibition (α-MMT induced depletion of norepinephrine): 5.6%
[4]
  Ki: 1.08 ± 0.32 nM
[5]
  IC50: 2.15 ± 0.7 nM
[6]
  IC50: 7.34 ± 1.48 nM
Formalin induced pain; po, p.o., read-out: ED50 (reduction of pain behavior)
  ED50: 13.4 mg/kg
Formalin induced pain; 1 mg/kg p.o.
  % reduction in total time licking: 4.5%
Formalin induced pain; 3 mg/kg p.o.
  % reduction in total time licking: 14.4%
Formalin induced pain; 10 mg/kg p.o.
  % reduction in total time licking: 38.0%
Formalin induced pain; 30 mg/kg p.o.
  % reduction in total time licking: 78.4%
